Data as given in patent publication US20140073694A1, “CYSTAMINE ANALOGUES FOR THE TREATMENT OF PARKINSON'S DISEASE” (UNIVERSITE LAVAL, priority 2011, published 2014).

Columns and labels:
[1] = set-up: species or system C57BL/6 mice; conditions: in vivo, ip, 200 mg/kg
Method: Young adult (9-week old, 25 g) male C57BL/6 mice were purchased from Charles River Laboratories (Montréal, QC, Canada). Animals were housed four per cage under standard conditions with free access to food and water, randomized and handled under the same conditions by one investigator. All experiments were performed in accordance with the Canadian Council on Animal Care and were approved by the Institutional Committee of the Centre Hospitalier de l'Université Laval (CHUL). Throughout the experiment, the health status of all mice included in the study was closely monitored. To clearly identify the active intermediate following cystamine injection, as well as to understand its systemic and cerebral metabolism, a single intraperitoneal (i.p.) injection of cystamine was administered to normal adult C57BL/6 male mice using three different doses: 10, 50, and 200 mg/kg, as determined in prior publications (Tremblay et al. 2006; Gibrat et al. 2010). These doses were ultimately compared with saline injections. Cystamine was dissolved in sterile saline (0.9%) and injected 1, 3, 12, 24 and 48 h before killing. Animals were sacrificed under deep anesthesia with ketamine/xylazine and perfused via intracardiac infusion with 0.1 M phosphate-buffered saline. […]

6-OHDA lesioned mice = test: Unilateral striatal 6-OHDA mouse model, neurorestoration experiment (behaviour and post-mortem); format: in vivo, C57BL/6 mice
Method: Young adult (9-week old, 25 grams) male C57BL/6 mice were purchased from Charles River Laboratories (Montréal, QC, Canada). Animals were housed 4 per cage under standard conditions with free access to food and water, randomized and handled under the same conditions by one investigator. All experiments were performed in accordance with the Canadian Council on Animal Care and were approved by the Institutional Committee of the Centre Hospitalier de l'Université Laval (CHUL). Throughout the experiment, the health status of all mice included in the study was closely monitored for weight loss or other signs of health-related issues. All efforts were made to minimize animal pain and discomfort.
This protocol was based on the unilateral stereotaxic intra-striatal injection of 6-hydroxydopamine (6-OHDA). Intrastriatal administration of 6-OHDA creates a progressive and retrograde degenerative changes in DA neurons of the substantia nigra (Bjorklund et al., 1997; Costantini et al., 2001). Mice were anaesthetized using isoflurane and placed onto a stereotactic frame adapted for mice. 6-OHDA was dissolved at a concentration of 2 μg/μl in 0.9% saline and 0.02% ascorbic acid and 2 μl was injected in the right striatum at a rate of 0.5 μl/min. The needle was left in place for 3 min after the injection before retraction. The injection was performed using an Hamilton syringe according to the stereotaxic co-ordinates: AP: +0.04 cm, ML: −0.18 cm, DV: −0.31 cm (corresponding to the atlas of Allan P. 2008).
To serve as controls, other mice were subjected to the same surgical procedures, but only 2 μl of solvent (0.9% saline and 0.02% ascorbic acid) was injected in the same coordinates. The study was further divided into 2 distinct experiments: • 1) The neurorescuing effects of cystamine (cystamine dihydrochloride, Sigma, St. Louis, Mo.) in 6-OHDA leisoned mice. For this experiment, the first i.p. injection of 10 mg/kg cystamine was administered 3 days post surgery and the treatment continued daily for 14 days. • 2) The neurorestorative effects of cystamine (cystamine dihydrochloride, Sigma, St. Louis, Mo.) in 6-OHDA lesioned mice. The treatment of cystamine began 3 weeks post surgery, when the dopaminergic (DAergic) lesion is known to be stable and has reached its peak. The treatment was continued daily for 6 weeks.
The effects of cystamine on the 6-OHDA toxicity were studied in the following experimental groups: Group I, Sham+Saline; Group II, 6-OHDA+Saline; Group III; Sham+Cystamine; Group IV, 6-OHDA+Cystamine. In total, 40 mice (n=10 per group) were utilized for each experiment, monitored daily for weight variation, and ultimately sacrificed by perfusion 24 hrs after the last cystamine (or vehicle) injection.
Animals were sacrificed under deep anesthesia with ketamine/xylazine (Vetalar, Bioniche, Belleville, ON/Rompun, Bayer, Toronto, ON). All mice were subjected to intracardiac perfusion with RNAse free 0.1 M phosphate-buffered saline (PBS). After intracardiac perfusion, brains were collected and the posterior brain of each mice, comprising the entire mesencephalon, was post-fixed in 4% PFA for additional immunohistochemistry and in situ hybridization analyses. The anterior brain, comprising the right and left striatum, was snap-frozen and used for HPLC and WB analyses.
Catecholamine quantification by HPLC, TH immunohistochemistry and in situ hybridization for Nurr1 and DAT were conducted as described in Example 1.
The loss of DAergic neurons was determined by stereological counts of TH-immunoreactive cells (identifiable somas) under bright-field illumination. Every 10th section through the SNc was analyzed using Stereo investigator software (MicroBrighffield, Colchester, Vt., USA) attached to an E800 Nikon microscope (Nikon Canada Inc., Mississauga, ON, Canada). After delineation of the SNc at low magnification (4× objective), a point grid was overlaid onto each section. […]

- duration of hypothermia and somnolence signs ([1]; male, C57BL/6, mouse): approximately 2 h
SMILES: NCCSSCCN [cystamine, Cystamine]
- clinical signs ([1]; mouse): signs of hypothermia (shivering) and somnolence (closing of eyelids)
- restoration of DA content in the lesioned striatum (6-OHDA lesioned mice; 10 mg/kg daily for 6 weeks from 3 weeks post-lesion): did not significantly restore DA content
- cylinder test, limb-use asymmetry (percentage of contralateral contacts) (6-OHDA lesioned mice; 10 mg/kg daily for 6 weeks from 3 weeks post-lesion, 6 and 9 weeks post-lesion): asymmetry was not visible
- apomorphine-induced contralateral rotations (6-OHDA lesioned mice; 10 mg/kg daily for 6 weeks from 3 weeks post-lesion, 6 and 9 weeks post-surgery): significantly attenuated by the cystamine treatment
- decrease of striatal DA levels measured by HPLC (6-OHDA lesioned mice; 6-OHDA lesioned mice, 10 mg/kg daily for 6 weeks from 3 weeks post-lesion): 84%
- decrease in the total number of TH-positive neurons in the SNpc (6-OHDA lesioned mice; 6-OHDA+cystamine vs sham+cystamine, 10 mg/kg daily for 6 weeks from 3 weeks post-lesion): 65%
- DA turnover (6-OHDA lesioned mice; vs 6-OHDA mice treated with saline): strong tendency to normalise the DA turnover
